Source: ChEMBL document CHEMBL1201862, “PubChem BioAssay data set” (2004)
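Results reflect a 48-hour exposure of cells in 96-well plates to compound at five concentrations. GI50: concentration for 50% inhibition of growth.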 Activity calls are given as the source filed them. Cut-off read from the data, not from the text of the source: active = GI50 up to about 1.1 µM and inactive = higher.

Columns and labels:
Experiment in all cases: inhibition of tumour cell growth, NCI panel, 48 h
UACC-62 = system: UACC-62
U-251 = system: U-251
ACHN = system: ACHN
M19-MEL = system: M19-MEL
SW-620 = system: SW-620
COLO 205 = system: COLO 205
NCI-H460 = system: NCI-H460
OVCAR-4 = system: OVCAR-4
OVCAR-5 = system: OVCAR-5
EKVX = system: EKVX
RPMI-8226 = system: RPMI-8226
IGROV-1 = system: IGROV-1
SK-MEL-5 = system: SK-MEL-5
SN12C = system: SN12C
KM-20L2 = system: KM-20L2
HOP-92 = system: HOP-92
SR = system: SR
HCT-116 = system: HCT-116
DMS-114 = system: DMS-114
SNB-19 = system: SNB-19
DLD-1 = system: DLD-1
SF-295 = system: SF-295
HCC 2998 = system: HCC 2998
SF-268 = system: SF-268
TK-10 = system: TK-10
A549 = system: A549
RXF 393 = system: RXF 393
HT-29 = system: HT-29
OVCAR-3 = system: OVCAR-3
MOLT-4 = system: MOLT-4
786-0 = system: 786-0
LXFL 529 = system: LXFL 529
SNB-75 = system: SNB-75
SNB-78 = system: SNB-78
LOX IMVI = system: LOX IMVI
DMS-273 = system: DMS-273
NCI-H23 = system: NCI-H23
SK-MEL-28 = system: SK-MEL-28
UO-31 = system: UO-31
NCI-H522 = system: NCI-H522
SK-OV-3 = system: SK-OV-3
M14 = system: M14
CCRF-CEM = system: CCRF-CEM
SF-539 = system: SF-539
UACC-257 = system: UACC-257
HL-60 = system: HL-60
A498 = system: A498
KM12 = system: KM12
OVCAR-8 = system: OVCAR-8
K562 = system: K562
HOP-62 = system: HOP-62
CAKI-1 = system: CAKI-1
SK-MEL-2 = system: SK-MEL-2
HCT-15 = system: HCT-15
Hs-578T = system: Hs-578T
MCF7 = system: MCF7
DU-145 = system: DU-145
NCI-H226 = system: NCI-H226
Malme-3M = system: Malme-3M
PC-3 = system: PC-3
MDA-MB-231 = system: MDA-MB-231
MDA-MB-435 = system: MDA-MB-435
T47D = system: T47D
BT-549 = system: BT-549
MDA-N = system: MDA-N
NCI/ADR-RES = system: NCI/ADR-RES

O=c1[nH]c(=O)n(C2OC(CO)C(N(O)Cc3ccc(F)cc3)C2O)cc1Br (stereo not drawn)
GI50 (UACC-62): > 100 µM (inactive)
GI50 (U-251): > 100 µM (inactive)
GI50 (ACHN): > 100 µM (inactive)
GI50 (M19-MEL): > 100 µM (inactive)
GI50 (SW-620): > 100 µM (inactive)
GI50 (COLO 205): > 100 µM (inactive)
GI50 (NCI-H460): > 100 µM (inactive)
GI50 (OVCAR-4): > 100 µM (inactive)
GI50 (OVCAR-5): > 100 µM (inactive)
GI50 (EKVX): > 100 µM (inactive)
GI50 (RPMI-8226): > 100 µM (inactive)
GI50 (IGROV-1): > 100 µM (inactive)
GI50 (SK-MEL-5): > 100 µM (inactive)
GI50 (SN12C): > 100 µM (inactive)
GI50 (KM-20L2): > 100 µM (inactive)
GI50 (HOP-92): > 100 µM (inactive)
GI50 (SR): > 100 µM (inactive)
GI50 (HCT-116): > 100 µM (inactive)
GI50 (DMS-114): > 100 µM (inactive)
GI50 (SNB-19): > 100 µM (inactive)
GI50 (DLD-1): > 100 µM (inactive)
GI50 (SF-295): > 100 µM (inactive)
GI50 (HCC 2998): > 100 µM (inactive)
GI50 (SF-268): > 100 µM (inactive)
GI50 (TK-10): > 100 µM (inactive)
GI50 (A549): > 100 µM (inactive)
GI50 (RXF 393): > 100 µM (inactive)
GI50 (HT-29): > 100 µM (inactive)
GI50 (OVCAR-3): > 100 µM (inactive)
GI50 (MOLT-4): > 100 µM (inactive)
GI50 (786-0): > 100 µM (inactive)
GI50 (LXFL 529): > 100 µM (inactive)
GI50 (SNB-75): > 100 µM (inactive)
GI50 (SNB-78): > 100 µM (inactive)
GI50 (LOX IMVI): > 100 µM (inactive)
GI50 (DMS-273): > 100 µM (inactive)
GI50 (NCI-H23): > 100 µM (inactive)
GI50 (SK-MEL-28): > 100 µM (inactive)
GI50 (UO-31): > 100 µM (inactive)
GI50 (NCI-H522): 13.2 µM (inactive)
GI50 (SK-OV-3): > 100 µM (inactive)
GI50 (M14): > 100 µM (inactive)
GI50 (CCRF-CEM): > 100 µM (inactive)
GI50 (SF-539): > 100 µM (inactive)
GI50 (UACC-257): > 100 µM (inactive)
GI50 (HL-60): > 100 µM (inactive)
GI50 (A498): > 100 µM (inactive)
GI50 (KM12): > 100 µM (inactive)
GI50 (OVCAR-8): > 100 µM (inactive)
GI50 (K562): > 100 µM (inactive)

c1ccncc1
GI50 (UACC-62): > 100 µM (inactive)
GI50 (U-251): > 100 µM (inactive)
GI50 (SW-620): > 100 µM (inactive)
GI50 (COLO 205): > 100 µM (inactive)
GI50 (NCI-H460): > 100 µM (inactive)
GI50 (OVCAR-4): > 100 µM (inactive)
GI50 (OVCAR-5): > 100 µM (inactive)
GI50 (EKVX): > 100 µM (inactive)
GI50 (RPMI-8226): > 100 µM (inactive)
GI50 (IGROV-1): > 100 µM (inactive)
GI50 (SK-MEL-5): > 100 µM (inactive)
GI50 (KM-20L2): > 100 µM (inactive)
GI50 (HOP-92): > 100 µM (inactive)
GI50 (HOP-62): > 100 µM (inactive)
GI50 (HCT-116): > 100 µM (inactive)
GI50 (SNB-19): > 100 µM (inactive)
GI50 (SF-295): > 100 µM (inactive)
GI50 (HCC 2998): > 100 µM (inactive)
GI50 (TK-10): > 100 µM (inactive)
GI50 (CAKI-1): > 100 µM (inactive)
GI50 (RXF 393): > 100 µM (inactive)
GI50 (HT-29): > 100 µM (inactive)
GI50 (OVCAR-3): > 100 µM (inactive)
GI50 (MOLT-4): > 100 µM (inactive)
GI50 (786-0): > 100 µM (inactive)
GI50 (SK-MEL-2): > 100 µM (inactive)
GI50 (SNB-75): > 100 µM (inactive)
GI50 (SK-MEL-28): > 100 µM (inactive)
GI50 (UO-31): > 100 µM (inactive)
GI50 (NCI-H522): > 100 µM (inactive)
GI50 (SK-OV-3): > 100 µM (inactive)
GI50 (M14): > 100 µM (inactive)
GI50 (CCRF-CEM): > 100 µM (inactive)
GI50 (UACC-257): > 100 µM (inactive)
GI50 (HL-60): > 100 µM (inactive)
GI50 (A498): > 100 µM (inactive)
GI50 (KM12): > 100 µM (inactive)
GI50 (OVCAR-8): > 100 µM (inactive)
GI50 (K562): > 100 µM (inactive)

O=C(NCCNCCNCCNC(=O)c1cc(-c2ccccc2)nc2ccccc12)c1cc(-c2ccccc2)nc2ccccc12
GI50 (HCT-15): 7.08 µM
GI50 (UACC-62): 2.05 µM (inactive)
GI50 (U-251): 1.73 µM (inactive)
GI50 (ACHN): 2.13 µM (inactive)
GI50 (SW-620): 1.83 µM (inactive)
GI50 (COLO 205): 1.99 µM (inactive)
GI50 (NCI-H460): 1.79 µM (inactive)
GI50 (OVCAR-4): 3.43 µM (inactive)
GI50 (OVCAR-5): 1.87 µM (inactive)
GI50 (EKVX): 5.96 µM (inactive)
GI50 (RPMI-8226): 2.45 µM (inactive)
GI50 (IGROV-1): 2.52 µM (inactive)
GI50 (Hs-578T): 2.25 µM (inactive)
GI50 (SK-MEL-5): 1.52 µM (inactive)
GI50 (SN12C): 3.07 µM (inactive)
GI50 (MCF7): 2.04 µM (inactive)
GI50 (HOP-92): 1.92 µM (inactive)
GI50 (HOP-62): 2.51 µM (inactive)
GI50 (SR): 2.02 µM (inactive)
GI50 (HCT-116): 1.88 µM (inactive)
GI50 (DU-145): 3.24 µM (inactive)
GI50 (SNB-19): 3.79 µM (inactive)
GI50 (SF-295): 1.67 µM (inactive)
GI50 (HCC 2998): 1.71 µM (inactive)
GI50 (NCI-H226): 2.64 µM (inactive)
GI50 (SF-268): 3.4 µM (inactive)
GI50 (TK-10): 3.01 µM (inactive)
GI50 (A549): 5.83 µM (inactive)
GI50 (CAKI-1): 15.3 µM (inactive)
GI50 (RXF 393): 2.02 µM (inactive)
GI50 (HT-29): 1.7 µM (inactive)
GI50 (OVCAR-3): 2.64 µM (inactive)
GI50 (MOLT-4): 1.95 µM (inactive)
GI50 (786-0): 1.66 µM (inactive)
GI50 (Malme-3M): 1.87 µM (inactive)
GI50 (SK-MEL-2): 1.54 µM (inactive)
GI50 (PC-3): 3.48 µM (inactive)
GI50 (SNB-75): 1.78 µM (inactive)
GI50 (MDA-MB-231): 2.96 µM (inactive)
GI50 (LOX IMVI): 1.56 µM (inactive)
GI50 (NCI-H23): 3.15 µM (inactive)
GI50 (SK-MEL-28): 1.7 µM (inactive)
GI50 (UO-31): 6.9 µM (inactive)
GI50 (NCI-H522): 1.67 µM (inactive)
GI50 (SK-OV-3): 3.02 µM (inactive)
GI50 (MDA-MB-435): 1.81 µM (inactive)
GI50 (M14): 1.82 µM (inactive)
GI50 (T47D): 2.68 µM (inactive)
GI50 (BT-549): 7.52 µM (inactive)
GI50 (CCRF-CEM): 2.28 µM (inactive)
GI50 (SF-539): 2.08 µM (inactive)
GI50 (MDA-N): 1.6 µM (inactive)
GI50 (UACC-257): 1.72 µM (inactive)
GI50 (HL-60): 1.74 µM (inactive)
GI50 (A498): 3.16 µM (inactive)
GI50 (KM12): 2.24 µM (inactive)
GI50 (NCI/ADR-RES): 13.4 µM (inactive)
GI50 (OVCAR-8): 2.08 µM (inactive)
GI50 (K562): 1.94 µM (inactive)
